One test deals with T1, Human recombinant PKCη (Homo sapiens, UniProt P24723).
T1 construct: purchased PanVera
The experiment in a line: Protein Kinase Cη Assay. Type of test: biochemical. The conditions noted are these: 10 μM ATP. As for the experimental part: (§1) The compounds of formula I are tested for their activity on different PKC isoforms according to a published method (D. Geiges et al. Biochem. Pharmacol. 1997;53:865-875) The assay is performed in a 96-well polypropylene microtiterplate (Costar 3794) that has been previously siliconized with Sigmacote (Sigma SL-2). The reaction mixture (50 μl) contains 10 μl the relevant PKC isozyme together with 25 μl of the test compound and 15 μl of a mix solution that contains 200 μg/ml protamine sulfate, 10 mM Mg(NO3)2, 10 μM ATP (Boehringer 519987) and 3750 Bq of ^33P-ATP (Hartmann Analytic SFC301, 110TBq/mmol) in 20 mM Tris-buffer pH 7.4+0.1% BSA. Incubation is performed for 15 min at 32° C. in a microtiterplate shaking incubator (Biolabo Scientific Instruments). Reaction is stopped by adding 10 μl of 0.5 M Na2EDTA, pH 7.4. 50 μl of mixture are pipetted onto a pre-wetted phosphocellulose paper (Whatmann 3698-915) under gentle pressure. Non-incorporated ATP is washed away with 100 μl bi-dist H2O. The paper is washed twice in 0.5% H3PO4 for 15 min followed by 5 min in EtOH. Thereafter the paper is dryed and placed in an omnifilter (Packard 6005219), and overlayed with 10 μl/well of Microscint-O (Packard 6013611) before counting in a Topcount radioactivity counter (Packard). […] IC50 value are calculated from the graph by sigmoidal curve fitting. […]

The target of another test is T2, Human recombinant PKCβ1 (Homo sapiens, UniProt P05771).
T2 construct: purchased Oxford Biomedical Research
T2 sequence (P05771 whole entry): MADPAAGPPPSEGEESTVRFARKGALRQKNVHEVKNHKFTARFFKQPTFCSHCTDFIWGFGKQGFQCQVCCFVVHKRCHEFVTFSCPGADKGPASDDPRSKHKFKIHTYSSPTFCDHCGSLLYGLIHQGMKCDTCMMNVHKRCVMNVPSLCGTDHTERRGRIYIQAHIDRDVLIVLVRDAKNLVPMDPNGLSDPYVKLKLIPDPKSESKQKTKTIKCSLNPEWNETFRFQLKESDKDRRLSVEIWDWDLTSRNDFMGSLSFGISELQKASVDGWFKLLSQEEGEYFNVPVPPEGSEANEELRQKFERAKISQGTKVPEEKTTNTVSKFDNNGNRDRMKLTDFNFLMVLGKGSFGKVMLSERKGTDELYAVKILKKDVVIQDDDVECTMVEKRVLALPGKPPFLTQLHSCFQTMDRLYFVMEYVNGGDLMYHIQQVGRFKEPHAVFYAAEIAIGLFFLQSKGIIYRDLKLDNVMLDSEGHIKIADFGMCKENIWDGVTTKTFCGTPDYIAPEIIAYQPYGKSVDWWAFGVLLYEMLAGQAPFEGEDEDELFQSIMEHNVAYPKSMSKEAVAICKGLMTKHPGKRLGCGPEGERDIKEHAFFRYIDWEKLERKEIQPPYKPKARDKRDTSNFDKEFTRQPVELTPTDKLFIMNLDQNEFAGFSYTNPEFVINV
The experiment in a line: Protein Kinase Cβ1 Assay. Type of test: biochemical. The conditions noted are these: human recombinant PKCβ1, 10 μM ATP. As for the experimental part: as §1

For a further test, the target named is T3, Human recombinant PKCε (Homo sapiens, UniProt Q02156).
T3 construct: purchased Oxford Biomedical Research
T3 sequence (Q02156 1-737): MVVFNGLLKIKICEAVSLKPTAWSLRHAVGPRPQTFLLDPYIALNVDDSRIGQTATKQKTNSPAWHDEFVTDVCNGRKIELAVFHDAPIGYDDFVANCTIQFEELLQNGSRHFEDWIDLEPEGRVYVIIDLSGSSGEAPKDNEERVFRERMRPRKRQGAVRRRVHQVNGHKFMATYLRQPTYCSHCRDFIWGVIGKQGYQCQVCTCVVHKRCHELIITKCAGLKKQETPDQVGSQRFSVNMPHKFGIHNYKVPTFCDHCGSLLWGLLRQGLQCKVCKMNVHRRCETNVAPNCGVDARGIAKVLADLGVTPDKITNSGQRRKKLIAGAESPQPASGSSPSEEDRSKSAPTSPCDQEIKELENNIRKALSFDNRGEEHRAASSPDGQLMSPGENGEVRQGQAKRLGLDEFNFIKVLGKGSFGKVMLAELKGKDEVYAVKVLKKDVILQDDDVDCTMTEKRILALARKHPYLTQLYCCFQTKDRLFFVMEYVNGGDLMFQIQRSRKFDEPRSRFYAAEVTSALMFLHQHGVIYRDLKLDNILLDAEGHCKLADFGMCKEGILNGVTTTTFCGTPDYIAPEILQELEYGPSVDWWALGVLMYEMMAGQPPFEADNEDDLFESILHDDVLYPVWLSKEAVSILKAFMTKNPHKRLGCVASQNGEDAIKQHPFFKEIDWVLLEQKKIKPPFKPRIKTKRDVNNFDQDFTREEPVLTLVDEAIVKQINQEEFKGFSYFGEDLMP
The test is described as follows: Protein Kinase Cε Assay. Type of test: biochemical. The settings on record: 10 μM ATP. As for the experimental part:
as §1

In the next test the target is T4, Human recombinant PKCδ (Homo sapiens, UniProt Q05655).
T4 construct: purchased Oxford Biomedical Research
T4 sequence (Q05655 whole entry): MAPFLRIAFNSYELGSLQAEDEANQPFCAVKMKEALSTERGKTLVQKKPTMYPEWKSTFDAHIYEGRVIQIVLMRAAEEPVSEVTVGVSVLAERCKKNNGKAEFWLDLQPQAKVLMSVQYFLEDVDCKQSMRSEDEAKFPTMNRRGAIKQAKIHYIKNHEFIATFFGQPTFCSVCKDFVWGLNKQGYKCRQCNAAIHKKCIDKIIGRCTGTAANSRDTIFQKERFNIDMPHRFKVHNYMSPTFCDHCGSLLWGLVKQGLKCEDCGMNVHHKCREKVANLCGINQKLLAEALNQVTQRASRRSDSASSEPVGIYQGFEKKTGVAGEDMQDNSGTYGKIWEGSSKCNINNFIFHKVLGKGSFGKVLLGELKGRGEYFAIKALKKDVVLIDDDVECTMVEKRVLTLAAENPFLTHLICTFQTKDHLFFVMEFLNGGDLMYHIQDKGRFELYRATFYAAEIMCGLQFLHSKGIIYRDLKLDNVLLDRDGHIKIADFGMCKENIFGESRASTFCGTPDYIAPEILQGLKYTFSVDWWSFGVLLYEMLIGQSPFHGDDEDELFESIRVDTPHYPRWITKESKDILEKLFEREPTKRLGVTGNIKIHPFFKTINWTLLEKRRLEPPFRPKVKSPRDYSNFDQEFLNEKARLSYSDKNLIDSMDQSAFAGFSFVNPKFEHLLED
The test is described as follows: Protein Kinase Cδ Assay. Type of test: biochemical. The conditions noted are these: 10 μM ATP. As for the experimental part: as §1

Test [1] deals with Jurkat cells transfected with a human interleukin-2 promoter/reporter gene construct. The experiment in a line: CD28 costimulation assay. Type of test: cell-based. The conditions noted are these: stimulated Jurkat cells, IL-2 promoter luciferase reporter, 5.5 hours. (Reporter assays use an easily measured gene product as a stand-in for the process of interest.)
In the next test the target is Human recombinant PKCθ (Homo sapiens, UniProt Q04759). The test is described as follows: Protein Kinase C θ Assay. Type of test: biochemical. The settings on record: 10 μM ATP. The source says: Human recombinant PKCθ is used under the assay conditions as described above.
Sequence of Human recombinant PKCθ (Q04759 whole entry): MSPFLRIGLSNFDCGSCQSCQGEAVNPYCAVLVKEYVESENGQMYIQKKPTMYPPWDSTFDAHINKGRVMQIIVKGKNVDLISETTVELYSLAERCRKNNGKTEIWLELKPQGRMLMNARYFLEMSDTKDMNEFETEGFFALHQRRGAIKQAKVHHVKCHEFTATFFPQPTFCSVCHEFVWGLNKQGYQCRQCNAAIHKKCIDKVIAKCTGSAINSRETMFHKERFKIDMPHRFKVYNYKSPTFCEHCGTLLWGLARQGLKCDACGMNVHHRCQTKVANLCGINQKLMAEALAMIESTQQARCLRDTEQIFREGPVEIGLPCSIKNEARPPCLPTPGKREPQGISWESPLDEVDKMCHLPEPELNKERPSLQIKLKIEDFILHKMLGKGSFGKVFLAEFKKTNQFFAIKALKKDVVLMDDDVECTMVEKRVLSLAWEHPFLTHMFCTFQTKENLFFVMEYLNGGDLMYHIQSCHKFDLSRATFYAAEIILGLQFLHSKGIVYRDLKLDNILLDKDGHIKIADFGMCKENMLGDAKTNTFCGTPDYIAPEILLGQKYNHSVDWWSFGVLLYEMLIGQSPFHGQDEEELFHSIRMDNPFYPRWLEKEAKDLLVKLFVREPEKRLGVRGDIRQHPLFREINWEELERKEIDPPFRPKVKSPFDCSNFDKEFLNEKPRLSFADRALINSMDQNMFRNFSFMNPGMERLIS
Test [2] has as its system spleen cells from CBA and BALB/c mice. The test is described as follows: Allogeneic Mixed Lymphocyte Reaction (MLR). Type of test: cell-based. The conditions noted are these: Mus musculus, two-way MLR, 3H-thymidine incorporation. As for the experimental part: The two-way MLR is performed according to standard procedures (J. Immunol. Methods, 1973, 2, 279 and Meo T. et al., Immunological Methods, New York, Academic Press, 1979, 227-39). Briefly, spleen cells from CBA and BALB/c mice (1.6×10^5 cells from each strain per well in flat bottom tissue culture microtiter plates, 3.2×10^5 in total) are incubated in RPMI medium containing 10% FCS, 100 U/ml penicillin, 100 μg/mI streptomycin (Gibco BRL, Basel, Switzerland), 50 μM 2-mercaptoethanol (Fluka, Buchs, Switzerland) and serially diluted compounds. Seven three-fold dilution steps in duplicates per test compound are performed. After four days of incubation 1 μCi ^3H-thymidine is added. Cells are harvested after an additional five-hour incubation period, and incorporated ^3H-thymidine is determined according to standard procedures. Background values (low control) of the MLR are the proliferation of BALB/c cells alone. Low controls are subtracted from all values. High controls without any sample are taken as 100% proliferation. Percent inhibition by the samples is calculated, and the concentrations required for 50% inhibition (IC50 values) are determined.
(In general: Dividing cells build labelled thymidine or BrdU into new DNA.)

In test [3] the test system is Rat Heart transplantation (graft survival). The experiment in a line: Rat Heart transplantation. Type of test: in vivo. The conditions noted are these: Lewis and BN strains, 30 mg/kg/day. As for the experimental part:
The strain combination used: Male Lewis (RT^1 haplotype) and BN (RT^1 haplotype). The animals are anaesthetised using inhalational isofluorane. […] The aorta is ligated and divided distal to the first branch and the brachiocephalic trunk is divided at the first bifurcation. The left pulmonary artery is ligated and divided and the right side divided but left open. All other vessels are dissected free, ligated and divided and the donor heart is removed into iced saline.
The recipient is prepared by dissection and cross-clamping of the infra-renal abdominal aorta and vena cava. The graft is implanted with end-to-side anastomoses, using 10/0 monofilament suture, between the donor brachiocephalic trunk and the recipient aorta and the donor right pulmonary artery to the recipient vena cava. The clamps are removed, the graft tethered retroabdominally, the abdominal contents washed with warm saline and the animal is closed and allowed to recover under a heating lamp. Graft survival is monitored by daily palpation of the beating donor heart through the abdominal wall. Rejection is considered to be complete when heart beat stops. Increases of graft survival are obtained in animals treated with a compound of formula I administered orally at a daily dose of 1 to 30 mg/kg.

The next test addresses T5, Human recombinant PKCα (Homo sapiens, UniProt P17252).
T5 construct: purchased Oxford Biomedical Research
The test is described as follows: Protein Kinase Cα Assay. Type of test: biochemical. The settings on record: 10 μM ATP. As for the experimental part:
The compounds of formula I are tested for their activity on different PKC isoforms according to a published method (D. Geiges et al. Biochem. Pharmacol. 1997;53:865-875) The assay is performed in a 96-well polypropylene microtiterplate (Costar 3794) that has been previously siliconized with Sigmacote (Sigma SL-2). The reaction mixture (50 μl) contains 10 μl the relevant PKC isozyme together with 25 μl of the test compound and 15 μl of a mix solution that contains 200 μg/ml protamine sulfate, 10 mM Mg(NO3)2, 10 μM ATP (Boehringer 519987) and 3750 Bq of ^33P-ATP (Hartmann Analytic SFC301, 110TBq/mmol) in 20 mM Tris-buffer pH 7.4+0.1% BSA. Incubation is performed for 15 min at 32° C. in a microtiterplate shaking incubator (Biolabo Scientific Instruments). Reaction is stopped by adding 10 μl of 0.5 M Na2EDTA, pH 7.4. 50 μl of mixture are pipetted onto a pre-wetted phosphocellulose paper (Whatmann 3698-915) under gentle pressure. Non-incorporated ATP is washed away with 100 μl bi-dist H2O. The paper is washed twice in 0.5% H3PO4 for 15 min followed by 5 min in EtOH. Thereafter the paper is dryed and placed in an omnifilter (Packard 6005219), and overlayed with 10 μl/well of Microscint-O (Packard 6013611) before counting in a Topcount radioactivity counter (Packard). […] IC50 value are calculated from the graph by sigmoidal curve fitting.

One may read the IC50 as the midpoint of a concentration-inhibition curve.

T1 sequence (P24723 whole entry): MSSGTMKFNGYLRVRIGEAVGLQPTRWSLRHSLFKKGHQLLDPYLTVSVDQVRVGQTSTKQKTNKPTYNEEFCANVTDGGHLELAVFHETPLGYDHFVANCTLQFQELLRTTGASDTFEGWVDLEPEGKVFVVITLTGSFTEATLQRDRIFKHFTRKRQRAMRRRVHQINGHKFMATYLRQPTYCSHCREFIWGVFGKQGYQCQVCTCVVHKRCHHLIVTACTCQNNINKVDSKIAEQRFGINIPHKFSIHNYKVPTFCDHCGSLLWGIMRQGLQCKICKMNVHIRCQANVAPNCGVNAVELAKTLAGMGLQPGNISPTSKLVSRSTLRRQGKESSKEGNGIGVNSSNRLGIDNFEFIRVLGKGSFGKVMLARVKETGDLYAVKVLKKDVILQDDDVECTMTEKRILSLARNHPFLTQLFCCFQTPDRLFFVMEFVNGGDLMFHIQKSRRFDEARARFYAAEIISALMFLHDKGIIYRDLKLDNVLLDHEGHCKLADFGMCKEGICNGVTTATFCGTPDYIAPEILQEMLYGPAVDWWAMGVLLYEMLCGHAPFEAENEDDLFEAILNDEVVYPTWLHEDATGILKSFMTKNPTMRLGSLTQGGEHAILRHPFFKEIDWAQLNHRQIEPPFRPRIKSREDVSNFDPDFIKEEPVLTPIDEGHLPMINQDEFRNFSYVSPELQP

As to `CC(C)N1CCN(c2nc(C3=C(c4c[nH]c5ccccc45)C(=O)NC3=O)c3ccccc3n2)CC1` [Example 85], the IC50 on Human recombinant PKCη amounted to 50 ± 9 nM.

As for `CN1CCN(c2cc(C3=C(c4c[nH]c5ccccc45)C(=O)NC3=O)c3ccccc3n2)CC1` [Example 163, 3-(1.H.-indol-3-yl)-4-[2-(4-methyl-piperazin-1-yl)-quinolin-4-yl]-pyrrole-2,5-dione], on Human recombinant PKCβ1, the IC50 stood at 8 ± 2 nM.

Regarding `Cc1cccc2c(C3=C(c4nc(N5CCN(C)CC5)nc5ccccc45)C(=O)NC3=O)c[nH]c12` [Example 139], the IC50 on Human recombinant PKCε worked out at 20 ± 7 nM.

For `CN1CCN(c2cc3ccccc3c(C3=C(c4c[nH]c5ccccc45)C(=O)NC3=O)n2)CC1` [Example 181, 3-(1.H.-Indol-3-yl)-4-[3-(4-methyl-piperazin-1-yl)-isoquinolin-1-yl]-pyrrole-2,5-dione], the half-inhibitory concentration (IC50) on Human recombinant PKCδ was 18 ± 8 nM.

In the case of `CN1CCN(c2nc(C3=C(c4c[nH]c5ccccc45)C(=O)NC3=O)c3ccccc3n2)CC1` [Example 56, 3-(1.H.-indol-3-yl)-4-[2-(4-methyl-piperazin-1-yl)-quinazolin-4-yl]-pyrrole-2,5-dione], the IC50 was 42 ± 12 nM in [1], under 10 nM on Human recombinant PKCθ and 168 ± 20 nM in test [2].

On to `Cn1cc(C2=C(c3nc(N4CCNC5(CC5)C4)nc4ccccc34)C(=O)NC2=O)c2ccccc21` [Example 100], for which the graft survival entry in [3] is “significantly increases the graft survival”. Besides, the IC50 at Human recombinant PKCα was found to be 39 ± 15 nM.

Source of the values: US6645970B2, “Indolylmaleimide derivatives” (Novartis AG, priority 2000, dated 2003).
